According to patent US10336707B2, “Heterocyclic derivatives modulating activity of certain protein kinases” (EUDENDRON S.R.L., priority 2014, dated 2019):

Legend:
Format in all cases: biochemical
[1] = biological target: T1, ROS (Homo sapiens, UniProt P08922); experiment: Radiometric protein kinase assay (33PanQuinase Activity Assay), ROS; conditions: ATP 0.3 μM
T1 construct: either as full-length or enzymatically active fragments; purchased ProQinase GmbH (Freiburg, Germany)
Method: (§1) A proprietary radiometric protein kinase assay (33PanQuinase® Activity Assay) developed by ProQuinase GmbH (Freiburg, Germany) was used for measuring the kinase activity of selected protein kinases. All assays were performed in FlashPlates™ wells 96 Perkin Elmer (Boston, Mass., USA) in a reaction volume of 50 μl. The reaction mixture was obtained in 4 steps in the following order: • 1. 10 μl of a solution of non-radioactive ATP in water; • 2. 25 μl of assay buffer/[γ-^33P]-ATP mixture • 3. 5 μl of test sample in 10% DMSO • 4. 10 μl of enzyme/substrate mixture
(§2) All protein kinases provided by ProQinase were expressed in Sf9 insect cells or in E. coli as recombinant GST-fusion proteins or His-tagged proteins, either as full-length or enzymatically active fragments. […] Kinases from external vendors (CAR=Carna Biosciences Inc.; INV=Life Technologies (Invitrogen Corporation); MIL=Merck-Millipore (Millipore Corporation), were expressed, purified and quality-controlled by virtue of the vendors readings.
(§3) A stock solution of compound of formula (I) was diluted to 5×10-04M/100% DMSO. […] Incorporation of 33Pi (counting of “cpm”) was determined with a microplate scintillation counter (Microbeta, Wallac). […]
(§4) Based on each 10 corresponding residual activities, IC50 values were calculated using Prism 5.04 for Windows (Graphpad, San Diego, Calif.). […]

[2] = biological target: T2, TRK-B (Homo sapiens, UniProt Q16620); experiment: Radiometric protein kinase assay (33PanQuinase Activity Assay), TRK-B; conditions: ATP 0.3 μM
T2 construct: either as full-length or enzymatically active fragments; purchased ProQinase GmbH (Freiburg, Germany)
Method: as §1, §2, §3, §4

[3] = biological target: T3, RET V804M (Homo sapiens, UniProt P07949, V804M); experiment: Radiometric protein kinase assay (33PanQuinase Activity Assay), RET V804M; conditions: ATP 0.3 μM
T3 construct: either as full-length or enzymatically active fragments; purchased ProQinase GmbH (Freiburg, Germany)
Method: as §1, §2, §3, §4

[4] = biological target: T4, ALKL1196M (GST-His-tag) (Homo sapiens, UniProt Q9UM73, L1196M); experiment: Radiometric protein kinase assay (33PanQuinase Activity Assay), ALK L1196M; conditions: ATP 0.3 μM
T4 construct: either as full-length or enzymatically active fragments; purchased ProQinase GmbH (Freiburg, Germany)
Method: as §1, §2, §3, §4

[5] = biological target: T5, ALK F1174L (GST-His-tag) (Homo sapiens, UniProt Q9UM73, F1174L); experiment: Radiometric protein kinase assay (33PanQuinase Activity Assay), ALK F1174L; conditions: ATP 0.3 μM
T5 construct: either as full-length or enzymatically active fragments; purchased ProQinase GmbH (Freiburg, Germany)
Method: as §1, §2, §3, §4

[6] = biological target: T6, RET wild-type (Homo sapiens, UniProt P07949); experiment: Radiometric protein kinase assay (33PanQuinase Activity Assay), RET wild-type; conditions: ATP 1.0 μM
T6 construct: either as full-length or enzymatically active fragments; purchased ProQinase GmbH (Freiburg, Germany)
Method: as §1, §2, §3, §4

[7] = biological target: T7, DDR2 T654M (Homo sapiens, UniProt Q16832, T654M); experiment: Radiometric protein kinase assay (33PanQuinase Activity Assay), DDR2 T654M; conditions: ATP 0.3 μM
T7 construct: either as full-length or enzymatically active fragments; purchased ProQinase GmbH (Freiburg, Germany)
T7 sequence (Q16832 22-855 T654M): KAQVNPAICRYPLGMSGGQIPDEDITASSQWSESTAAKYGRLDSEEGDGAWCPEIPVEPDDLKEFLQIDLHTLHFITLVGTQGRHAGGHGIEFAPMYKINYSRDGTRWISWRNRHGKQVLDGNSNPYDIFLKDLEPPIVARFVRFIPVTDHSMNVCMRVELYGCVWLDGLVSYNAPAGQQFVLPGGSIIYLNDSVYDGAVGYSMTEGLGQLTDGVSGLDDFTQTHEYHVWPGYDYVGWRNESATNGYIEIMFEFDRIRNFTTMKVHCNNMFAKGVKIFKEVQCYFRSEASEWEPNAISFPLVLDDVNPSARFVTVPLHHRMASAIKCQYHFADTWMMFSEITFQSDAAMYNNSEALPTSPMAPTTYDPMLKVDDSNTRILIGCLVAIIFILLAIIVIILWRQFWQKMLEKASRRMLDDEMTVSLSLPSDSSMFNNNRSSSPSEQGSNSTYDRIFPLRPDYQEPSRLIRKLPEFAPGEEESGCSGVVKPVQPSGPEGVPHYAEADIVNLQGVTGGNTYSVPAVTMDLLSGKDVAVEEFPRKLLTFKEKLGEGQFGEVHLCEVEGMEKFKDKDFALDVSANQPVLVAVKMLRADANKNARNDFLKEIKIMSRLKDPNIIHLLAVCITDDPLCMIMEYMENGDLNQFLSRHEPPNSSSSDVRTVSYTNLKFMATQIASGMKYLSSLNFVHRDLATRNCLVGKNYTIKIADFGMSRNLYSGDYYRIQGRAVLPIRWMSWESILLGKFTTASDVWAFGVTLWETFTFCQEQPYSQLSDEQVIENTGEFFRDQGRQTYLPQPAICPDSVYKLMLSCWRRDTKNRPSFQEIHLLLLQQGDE
Method: as §1, §2, §3, §4

T3 sequence (P07949 29-1114 V804M): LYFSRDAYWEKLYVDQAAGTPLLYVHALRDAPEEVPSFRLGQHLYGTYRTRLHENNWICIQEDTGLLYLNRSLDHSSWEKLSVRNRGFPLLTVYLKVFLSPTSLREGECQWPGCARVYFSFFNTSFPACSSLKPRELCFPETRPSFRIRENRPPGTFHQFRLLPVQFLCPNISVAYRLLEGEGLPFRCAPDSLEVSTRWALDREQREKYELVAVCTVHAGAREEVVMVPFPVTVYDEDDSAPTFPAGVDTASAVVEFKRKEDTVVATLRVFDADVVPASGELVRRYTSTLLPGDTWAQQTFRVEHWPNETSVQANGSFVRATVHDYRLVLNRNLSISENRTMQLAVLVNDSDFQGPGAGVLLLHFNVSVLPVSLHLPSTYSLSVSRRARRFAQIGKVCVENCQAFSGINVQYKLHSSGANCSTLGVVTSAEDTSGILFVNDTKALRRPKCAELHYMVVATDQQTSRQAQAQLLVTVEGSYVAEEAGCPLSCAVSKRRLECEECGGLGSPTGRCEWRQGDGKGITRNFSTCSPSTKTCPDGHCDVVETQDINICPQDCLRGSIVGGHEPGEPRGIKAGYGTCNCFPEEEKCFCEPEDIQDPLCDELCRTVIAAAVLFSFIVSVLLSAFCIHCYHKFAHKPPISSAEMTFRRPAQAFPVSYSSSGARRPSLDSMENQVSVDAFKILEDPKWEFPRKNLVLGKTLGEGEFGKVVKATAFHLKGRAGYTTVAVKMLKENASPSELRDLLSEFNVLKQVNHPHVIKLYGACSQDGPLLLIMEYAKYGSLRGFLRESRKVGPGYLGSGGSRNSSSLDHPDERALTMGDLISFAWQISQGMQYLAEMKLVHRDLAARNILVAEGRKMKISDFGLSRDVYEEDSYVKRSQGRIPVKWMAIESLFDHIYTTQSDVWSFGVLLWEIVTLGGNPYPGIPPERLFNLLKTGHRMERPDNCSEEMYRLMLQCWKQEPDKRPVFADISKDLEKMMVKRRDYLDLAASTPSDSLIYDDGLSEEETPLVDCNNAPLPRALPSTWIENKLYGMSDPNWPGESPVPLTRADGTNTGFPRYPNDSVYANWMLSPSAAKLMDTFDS
T5 sequence (Q9UM73 19-1620 F1174L): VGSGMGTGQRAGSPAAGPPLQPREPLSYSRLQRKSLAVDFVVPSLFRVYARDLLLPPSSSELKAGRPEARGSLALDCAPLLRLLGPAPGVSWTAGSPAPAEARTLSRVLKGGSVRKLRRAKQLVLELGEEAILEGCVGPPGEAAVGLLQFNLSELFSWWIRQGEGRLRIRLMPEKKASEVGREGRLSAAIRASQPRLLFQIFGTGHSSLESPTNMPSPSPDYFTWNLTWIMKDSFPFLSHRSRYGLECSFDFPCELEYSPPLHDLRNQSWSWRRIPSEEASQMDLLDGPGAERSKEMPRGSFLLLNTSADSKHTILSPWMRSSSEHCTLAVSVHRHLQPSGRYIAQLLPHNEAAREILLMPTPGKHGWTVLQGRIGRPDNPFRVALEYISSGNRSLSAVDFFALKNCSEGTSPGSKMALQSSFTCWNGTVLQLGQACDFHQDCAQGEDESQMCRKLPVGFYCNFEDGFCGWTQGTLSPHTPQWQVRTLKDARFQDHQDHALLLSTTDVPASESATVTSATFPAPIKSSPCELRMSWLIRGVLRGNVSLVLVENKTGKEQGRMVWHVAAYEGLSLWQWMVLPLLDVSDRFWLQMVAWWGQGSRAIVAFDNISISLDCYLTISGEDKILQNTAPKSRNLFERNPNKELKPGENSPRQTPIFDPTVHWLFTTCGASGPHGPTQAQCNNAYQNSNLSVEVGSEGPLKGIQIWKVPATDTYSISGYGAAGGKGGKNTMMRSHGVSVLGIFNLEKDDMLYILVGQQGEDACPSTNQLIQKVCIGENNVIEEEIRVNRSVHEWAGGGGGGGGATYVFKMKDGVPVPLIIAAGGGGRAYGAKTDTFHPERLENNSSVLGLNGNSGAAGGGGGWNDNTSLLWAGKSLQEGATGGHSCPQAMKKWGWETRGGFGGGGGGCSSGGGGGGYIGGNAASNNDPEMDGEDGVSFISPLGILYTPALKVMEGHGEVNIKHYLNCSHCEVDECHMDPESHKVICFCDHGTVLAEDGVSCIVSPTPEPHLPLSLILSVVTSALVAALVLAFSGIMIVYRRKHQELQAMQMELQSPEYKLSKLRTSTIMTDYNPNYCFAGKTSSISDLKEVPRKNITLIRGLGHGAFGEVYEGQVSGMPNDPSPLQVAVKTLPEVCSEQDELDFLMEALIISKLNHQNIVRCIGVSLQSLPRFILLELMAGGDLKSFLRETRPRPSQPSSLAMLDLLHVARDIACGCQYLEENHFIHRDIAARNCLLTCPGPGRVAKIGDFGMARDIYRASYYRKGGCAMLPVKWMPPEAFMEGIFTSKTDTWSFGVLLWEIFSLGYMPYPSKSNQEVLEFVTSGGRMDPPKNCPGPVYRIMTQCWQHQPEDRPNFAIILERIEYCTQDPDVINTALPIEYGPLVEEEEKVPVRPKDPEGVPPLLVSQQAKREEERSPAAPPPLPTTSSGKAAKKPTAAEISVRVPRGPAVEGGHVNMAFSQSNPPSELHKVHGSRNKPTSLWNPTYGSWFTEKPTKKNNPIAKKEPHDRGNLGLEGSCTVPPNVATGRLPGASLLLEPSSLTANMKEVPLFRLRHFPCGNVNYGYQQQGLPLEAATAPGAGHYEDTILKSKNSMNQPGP
T2 sequence (Q16620 32-822): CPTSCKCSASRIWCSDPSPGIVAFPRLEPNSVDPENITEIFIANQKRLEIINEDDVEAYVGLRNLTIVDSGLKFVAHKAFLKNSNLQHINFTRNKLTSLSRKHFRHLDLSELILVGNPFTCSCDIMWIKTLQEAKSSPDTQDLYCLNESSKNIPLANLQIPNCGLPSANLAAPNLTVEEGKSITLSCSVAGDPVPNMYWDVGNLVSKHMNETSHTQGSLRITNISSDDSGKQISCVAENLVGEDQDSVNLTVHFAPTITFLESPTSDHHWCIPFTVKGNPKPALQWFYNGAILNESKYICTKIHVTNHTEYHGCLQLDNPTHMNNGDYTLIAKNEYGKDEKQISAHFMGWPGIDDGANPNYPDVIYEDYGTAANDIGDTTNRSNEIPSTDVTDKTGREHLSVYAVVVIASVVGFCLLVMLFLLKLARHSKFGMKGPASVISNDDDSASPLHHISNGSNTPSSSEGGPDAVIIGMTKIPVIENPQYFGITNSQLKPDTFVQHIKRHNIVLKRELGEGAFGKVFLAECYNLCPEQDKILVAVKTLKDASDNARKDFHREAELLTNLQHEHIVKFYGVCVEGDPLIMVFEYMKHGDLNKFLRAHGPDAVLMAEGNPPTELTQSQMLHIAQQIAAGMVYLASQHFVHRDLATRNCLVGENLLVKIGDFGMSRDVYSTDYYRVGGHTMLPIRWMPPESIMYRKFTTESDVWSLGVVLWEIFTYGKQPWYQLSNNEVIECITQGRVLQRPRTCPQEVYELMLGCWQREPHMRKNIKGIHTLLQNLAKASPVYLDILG
T4 sequence (Q9UM73 19-1620 L1196M): as the sequence (Q9UM73 19-1620 F1174L) above, with L1156F, L1178M counted along it
T6 sequence (P07949 29-1114): as the sequence (P07949 29-1114 V804M) above, with M776V counted along it
T1 sequence (P08922 1883-2347 limits assumed): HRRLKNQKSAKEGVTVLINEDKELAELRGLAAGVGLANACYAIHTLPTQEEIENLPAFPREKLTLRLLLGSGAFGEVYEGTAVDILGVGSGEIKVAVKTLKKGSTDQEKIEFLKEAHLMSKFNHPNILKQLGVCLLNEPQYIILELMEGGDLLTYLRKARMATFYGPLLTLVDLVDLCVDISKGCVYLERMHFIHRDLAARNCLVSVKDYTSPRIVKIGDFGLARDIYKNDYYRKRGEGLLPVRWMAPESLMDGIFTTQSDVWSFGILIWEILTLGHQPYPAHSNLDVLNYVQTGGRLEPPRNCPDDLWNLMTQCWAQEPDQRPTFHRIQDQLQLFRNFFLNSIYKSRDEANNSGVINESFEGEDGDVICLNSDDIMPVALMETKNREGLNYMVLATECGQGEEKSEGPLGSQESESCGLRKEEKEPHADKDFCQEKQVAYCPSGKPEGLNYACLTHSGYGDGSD

Compound: CN1CCN(c2ccc(C(=O)Nc3n[nH]c4cc(-c5ccc(O)cc5)c(Cc5cc(F)cc(F)c5)cc34)c(NC3CCOCC3)c2)CC1 [Example 3, N-[5-[(3,5-difluorophenyl)methyl]-6-(4-hydroxyphenyl)-1H-indazol-3-yl]-4-(4-methylpiperazin-1-yl)-2-(tetrahydropyran-4-ylamino)benzamide]
- IC50 [1]: 160 nM
- IC50 [2]: 88 nM
- IC50 [3]: 85 nM
- IC50 [4]: 45 nM
- IC50 [5]: 46 nM
- IC50 [6]: 120 nM
- IC50 [7]: 84 nM
